# Test results as given in US9040637B2, “Manganese comprising nanostructures” (SPAGO IMAGING AB, priority 2011, dated 2015).
# What was measured:
# Format in all cases: physicochemical
# [1] = Complexometric stability test (equimolar EDTA) evaluated by relaxometry; conditions: 1 mM Mn standard + equimolar EDTA, pH 7±0.5, 60 MHz, 37° C.
# Protocol: Measure the longitudinal relaxivity of a nanostructure solution (r1(ns)) having a concentration of 1 mM Mn. Prepare another nanostructure solution containing 1 mM Mn and add an equivalent molar amount of EDTA. The pH of this solution must be adjusted to pH 7±0.5, if necessary. Measure the longitudinal relaxivity of this nanostructure solution with added EDTA (r1(ns+EDTA)). As a reference material, 1 mM solution using a Manganese Standard for AAS (Fluka 77036) is prepared, added an equimolar amount of EDTA, and pH adjusted to pH 7±0.5. The longitudinal relaxivity is measured (r1(Mn+EDTA)) and resulted to a value of 1.6 mM^−1s^−1. To calculate the % Mn-released from the nanostructure after addition of equivalent EDTA:
# [formula] Note: Relaxation (T1, in seconds) is measured using the Minispec mq60 NMR analyzer (60 MHz) at 37° C. and relaxivity r1 is calculated using:
# [formula] where T1 H2O=[…]; c1=1 mM.
# [2] = Hydrodynamic diameter by dynamic light scattering (DLS), volume average; conditions: aqueous solution
# Protocol: The term “DLS” as used herein is an acronym for dynamic light scattering, a particle sizing method, and may also be referred to as Photon Correlation Spectroscopy or Quasi-Elastic Light Scattering. The DLS sizes given as stated in the text and in the claims, if nothing else is specified, refers to the position of the maximum of the volume average peak for a sample measured at 25° C. in neutral aqueous solution with an ionic strength corresponding to 150 mM NaCl.
# The hydrodynamic diameter referred to, is the diameter of the equivalent hard sphere as calculated from the diffusion coefficient, according to the Stokes-Einstein equation. The diffusion coefficient is in turn calculated from the time dependent light scattering data obtained by the Dynamic Light Scattering (DLS) technique. As a comparison, bovine serum albumin is measured to have a hydrodynamic diameter of 6.5 nm by DLS in aqueous solution, very much in agreement with the crystal structure. Depending on whether the number average, volume average, or scattered intensity average is used, the values may be somewhat different. […] The average diameters referred to in this text refers to volume averages.
# [3] = Relaxivity (r1, r2) measurement at 1.91 T (81.33 MHz); conditions: in H2O @ 25 C.
# Text: Furthermore, the effect of a compound on the T1 is given as the relaxivity so a high relaxivity gives a stronger signal enhancement. The relaxivity (r) is frequency dependent in a structure dependent way which complicates the comparison of data from the literature from different sources. The clinical MRI scanners usually have a magnetic field of 1.5 or 3 Tesla so we have measured our relaxivities at 1.91 T, corresponding to a proton resonance frequency of 81.3 MHz, as a reasonable compromise. Measurements may also be done at other frequencies, such as 60 MHz. The relaxivity for the commercially available gadolinium based contrast agents are close to 4/mMGd/s at the clinically relevant fields.
compound,measurement,setting,value
Mn+EDTA,longitudinal relaxivity r1(Mn+EDTA),[1],1.6 mM⁻¹ s⁻¹
bovine serum albumin: size comparison for DLS,hydrodynamic diameter by DLS,[2],6.5 nm
[Cl][Mn][Cl] [MnCl2],r1,[3],5.8
